Among the data in US20230192700A1, “PYRAZOLOPYRAZINES ACTING ON CANCERS VIA INHIBITION OF CDK12” (Bayer Aktiengesellschaft, priority 2020, published 2023) are IC50 values, retold here.

Assay [1] has as its system CAL-120 human breast adenocarcinoma cells. Briefly: Proliferation assay CAL-120 (crystal violet). The conditions noted are these: CAL-120 cells, 4 days, median, read-out: Prolif-CAL-120— IC50 - [mol/l] (median). The class given is cell-based. The method, then:
4. Proliferation assay: MDA-MB-231, CAL-120
Human tumour cells were originally obtained from the American Type Culture Collection (ATCC), or from the Deutsche Sammlung von Mikroorganismen and Zellkulturen (DSMZ, German Collection of Microorganisms and Cell Cultures). Cultivated tumour cells (CAL-120, human breast adenocarcinoma cells, DSMZ ACC-459; MDA-M B-231, human breast cancer cells, ATCC HTB-26) were plated at a density of 4,000 cells/well in a 96-well multititer plate in 200 microL of their respective growth medium supplemented 10% fetal calf serum. After 24 hours, the cells of one plate (zero-point plate) were stained with crystal violet (see below), while the medium of the other plates was supplemented with the test substances in various concentrations (0 micromol/L, as well as in the range of 0.01-10 micromol/L; the final concentration of the solvent dimethyl sulfoxide was adjusted to 0.1%) using a Tecan HP D300 Digital Dispenser. The cells were incubated for 4 days in the presence of test substances. Cell proliferation was determined by staining the cells with crystal violet: the cells were fixed by adding 20 microL/measuring point of an 11% glutaric aldehyde solution for 15 minutes at room temperature. After three washing cycles of the fixed cells with water, the plates were dried at room temperature. The cells were stained by adding 100 microL/measuring point of a 0.1% crystal violet solution (pH 3.0). After three washing cycles of the stained cells with water, the plates were dried at room temperature. The dye was dissolved by adding 100 microL/measuring point of a 10% acetic acid solution. The extinction was determined by photometry at a wavelength of 595 nm. The change of cell number, in percent, was calculated by normalization of the measured values to the extinction values of the zero-point plate(=0%) and the extinction of the untreated (0 μM) cells(=100%). The IC50 values (inhibitory concentration at 50% of maximal effect) were determined by means of a 4 parameter fit.

The target of the next assay is T1, CDK9/CyclinT1 (Homo sapiens, UniProt P50750).
T1 construct: Recombinant full-length His-tagged human CDK9 and CycT1; His-tag; purchased Life Technologies PV4131; host or cells: insect cells
T1 sequence (P50750 whole entry): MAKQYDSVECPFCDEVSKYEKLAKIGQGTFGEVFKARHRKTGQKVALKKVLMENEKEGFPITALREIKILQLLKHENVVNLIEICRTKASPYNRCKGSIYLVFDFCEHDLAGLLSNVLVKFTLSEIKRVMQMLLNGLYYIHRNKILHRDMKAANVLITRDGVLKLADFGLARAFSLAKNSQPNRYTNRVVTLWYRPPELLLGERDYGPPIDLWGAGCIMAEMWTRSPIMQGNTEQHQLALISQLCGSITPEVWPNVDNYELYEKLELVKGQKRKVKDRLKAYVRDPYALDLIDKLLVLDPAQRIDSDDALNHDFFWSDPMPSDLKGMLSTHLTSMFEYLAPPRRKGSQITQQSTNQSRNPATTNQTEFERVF
T1 sequence (O60563 whole entry partner): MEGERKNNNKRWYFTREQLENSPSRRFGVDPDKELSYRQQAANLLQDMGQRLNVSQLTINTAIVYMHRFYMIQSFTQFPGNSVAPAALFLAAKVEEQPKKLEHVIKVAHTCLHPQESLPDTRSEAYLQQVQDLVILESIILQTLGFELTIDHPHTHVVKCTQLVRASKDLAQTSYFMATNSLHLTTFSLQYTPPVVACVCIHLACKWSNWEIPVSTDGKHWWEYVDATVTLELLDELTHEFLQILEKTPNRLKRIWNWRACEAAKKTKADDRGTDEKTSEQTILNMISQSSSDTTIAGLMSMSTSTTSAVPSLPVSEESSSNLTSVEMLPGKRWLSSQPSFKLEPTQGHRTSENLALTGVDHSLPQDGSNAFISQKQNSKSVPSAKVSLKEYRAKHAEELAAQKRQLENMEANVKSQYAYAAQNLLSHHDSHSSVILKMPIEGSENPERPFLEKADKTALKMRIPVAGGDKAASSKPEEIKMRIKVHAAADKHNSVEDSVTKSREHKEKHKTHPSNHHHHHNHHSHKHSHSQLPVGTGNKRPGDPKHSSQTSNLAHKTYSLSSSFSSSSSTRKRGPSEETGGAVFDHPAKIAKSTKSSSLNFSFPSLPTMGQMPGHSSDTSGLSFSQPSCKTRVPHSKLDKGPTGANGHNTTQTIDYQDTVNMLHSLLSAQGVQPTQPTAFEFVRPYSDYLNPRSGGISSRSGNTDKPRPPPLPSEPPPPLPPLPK
In words: CDK9/CycT1 high ATP kinase assay (TR-FRET). Format: biochemical. The conditions noted are these: 2 mM ATP (high ATP); median; read-out: CDK9/CyclinT1, 2 mM ATP (high ATP) IC50 - [mol/l] (median). The method, then: 2.5 CDK9/CycT1 High ATP Kinase Assay
CDK9/CycT1 -inhibitory activity of compounds of the present invention at a high ATP concentration after preincubation of enzyme and test compounds was quantified employing the CDK9/CycT1 TR-FRET assay as described in the following paragraphs.
Recombinant full-length His-tagged human CDK9 and CycT1, expressed in insect cells and purified by Ni-NTA affinity chromatography, were purchased from Life Technologies (Cat. No PV4131). As substrate for the kinase reaction biotinylated peptide biotin-Ttds-YISPLKSPYKISEG (C-terminus in amide form) was used which can be purchased e.g. form the company JERINI peptide technologies (Berlin, Germany).
For the assay 50 nanoL of a 100 fold concentrated solution of the test compound in DMSO was pipetted into either a black low volume 384 well microtiter plate or a black 1536 well microtiter plate (both Greiner Bio-One, Frickenhausen, Germany), 2 microL of a solution of CDK9/CycT1 in aqueous assay buffer [50 millimol/L Tris/HCl pH 8.0, 10 millimol/L MgCl2, 1.0 millimol/L dithiothreitol, 0.1 millimol/L sodium ortho-vanadate, 0.01% (v/v) Nonidet-P40 (Sigma)] were added and the mixture was incubated for 15 min at 22° C. to allow pre-binding of the test compounds to the enzyme before the start of the kinase reaction. Then the kinase reaction was started by the addition of 3 microL of a solution of adenosine-tri-phosphate (ATP, 3.3 millimol/L=>final conc. in the 5 microL assay volume is 2 millimol/L) and substrate (1.25 micromol/L =>final conc. in the 5 microL assay volume is 0.75 micromol/L) in assay buffer and the resulting mixture was incubated for a reaction time of 25 min at 22° C. The concentration of CDK9/CycT1 was adjusted depending of the activity of the enzyme lot and was chosen appropriate to have the assay in the linear range, typical concentrations were in the range of 0.5 microg/mL. The reaction was stopped by the addition of 3 microL of a solution of TR-FRET detection reagents (0.33 micromol/L streptavidine-XL665 [Cisbio Bioassays, Codolet, France] and 1.67 nanomol/L anti-RB(pSer807/pSer811)-antibody from BD Pharmingen [#558389] and 2 nanomol/L LANCE EU-W1024 labeled anti-mouse IgG antibody [Perkin-Elmer, product no. AD0077]) in an aqueous EDTA-solution (167 millimol/L EDTA, 0.2% (w/v) bovine serum albumin in 100 millimol/L HEPES pH 7.5).
The resulting mixture was incubated 1 h at 22° C. to allow the formation of complex between the phosphorylated biotinylated peptide and the detection reagents. Subsequently the amount of phosphorylated substrate was evaluated by measurement of the resonance energy transfer from the Eu-chelate to the streptavidine-XL. Therefore, the fluorescence emissions at 620 nm and 665 nm after excitation at 350 nm was measured in a TR-FRET reader, e.g. a Pherastar (BMG Labtechnologies, Offenburg, Germany) or a Viewlux (Perkin-Elmer). The ratio of the emissions at 665 nm and at […] was taken as the measure for the amount of phosphorylated substrate. The data were normalised (enzyme reaction without inhibitor=0% inhibition, all other assay components but no enzyme=100% inhibition).
(In general: In TR-FRET formats the signal depends on donor and acceptor labels being close together.)

In assay [2] the test system is BRCA1 mRNA expression in MDA-MB-231 cells. In words: qRT-PCR assay: inhibition of BRCA1 mRNA expression in MDA-MB-231 cells. The class given is cell-based, human. The conditions noted are these: 24 h exposure, BRCA1 mRNA normalised to GAPDH, median, read-out: RTqPCR-MDA-MB-231 IC50 [mol/l] BRCA1 (median). On the procedure: 3. qRT-PCR Assay: BRCA1, ATR, MCL1 in MDA-MB-231, CAL-120
Tissue cultured human MDA-MB-231 human breast cancer cells were plated in 500 microL per well at 200,000 cells/well in a 24 well microtiter plate. After 24 h, the cells were exposed continuously for 24 h to test substances (substances were added with Tecan HP D300 Dispenser). RNA was prepared using Qiagen RNeasy MiniKit (#74106), RNA was quantified using a NanoDrop Equipment, and 600 nano gamms of RNA was coverted to cDNA using a SuperScript VILO kit (Thermofisher #11755050) followed by qPCR amplification. BRCA1 and ATR gene expression was measured by RT-qPCR and normalised to GAPDH housekeeping gene expression. qPCR primer sets have been purchased from Thermo Fisher Scientific/Applied Biosystems: BRCA1, # Hs 01556193; ATR, #Hs 00992123; GAPDH, #Hs 03929097.
On the technique in general: In qPCR the cycle at which signal appears reflects the starting amount.

Where two headings read alike, the source gives them in different places. Where only a bound is given, the exact number is not on record here.

As to `CC(C)(O)C1CC(n2nc(NCc3nc4ccccc4[nH]3)c3ncc(C4CC4)nc32)C1` (mixture of isomers) [Example 48, 2-[cis/trans-3-(3-{[(1H-benzimidazol-2-yl)methyl]amino}-6-cyclopropyl-1H-pyrazolo[3,4-b]pyrazin-1-yl)cyclobutyl]propan-2-ol], the IC50 in assay [1] (Homo sapiens, CAL-120, 96 h) is 42.5 nM; at CDK9/CyclinT1 it was over 20000 nM; in assay [2] (Homo sapiens, MDA-MB-231, 24 h), 39.5 nM.

As for `CN1CCCC(n2nc(NCc3nc4ccccc4[nH]3)c3ncc(C4CC4)nc32)CC1` (racemic) [Example 34, (±)-N-[(1H-benzimidazol-2-yl)methyl]-6-cyclopropyl-1-(1-methylazepan-4-yl)-1H-pyrazolo[3,4-b]pyrazin-3-amine], the IC50 in assay [1] (Homo sapiens, CAL-120, 96 h) was 7.7 nM; at CDK9/CyclinT1, over 20000 nM; in assay [2] (Homo sapiens, MDA-MB-231, 24 h), 22.5 nM.

Consider `CN1CCC(n2nc(NCc3nc4ccccc4[nH]3)c3ncc(C4CC4)nc32)C1` (racemic) [Example 35, (±)-N-[(1H-benzimidazol-2-yl)methyl]-6-cyclopropyl-1-(1-methylpyrrolidin-3-yl)-1H-pyrazolo[3,4-b]pyrazin-3-amine], for which the IC50 is 11.7 nM in assay [1] (Homo sapiens, CAL-120, 96 h); over 20000 nM on CDK9/CyclinT1; 30.2 nM in assay [2] (Homo sapiens, MDA-MB-231, 24 h).

On to `CC1CC(n2nc(NCc3nc4ccccc4[nH]3)c3ncc(C4CC4)nc32)CCN1C` (racemic) [Example 41, (±)-cis/trans-N-[(1H-benzimidazol-2-yl)methyl]-6-cyclopropyl-1-(1,2-dimethylpiperidin-4-yl)-1H-pyrazolo[3,4-b]pyrazin-3-amine], for which the IC50 is 20.4 nM in assay [1] (Homo sapiens, CAL-120, 96 h); over 20000 nM at CDK9/CyclinT1; 20.6 nM in assay [2] (Homo sapiens, MDA-MB-231, 24 h).

Take `CC1CC(n2nc(NCc3nc4ccccc4[nH]3)c3ncc(C4CC4)nc32)CCO1` (racemic) [Example 44, (±)-cis/trans-N-[(1H-benzimidazol-2-yl)methyl]-6-cyclopropyl-1-(2-methyloxan-4-yl)-1H-pyrazolo[3,4-b]pyrazin-3-amine]: the IC50 was 23.5 nM in assay [1] (Homo sapiens, CAL-120, 96 h); over 20000 nM on CDK9/CyclinT1; 24.2 nM in assay [2] (Homo sapiens, MDA-MB-231, 24 h).

`c1ccc2[nH]c(CNc3nn(C4CCOC4)c4nc(C5CC5)cnc34)nc2c1` (single isomer, unassigned) [Example 17, (+) or (−)-N-[(1H-benzimidazol-2-yl)methyl]-6-cyclopropyl-1-(oxolan-3-yl)-1H-pyrazolo[3,4-b]pyrazin-3-amine]: the IC50 in assay [1] (Homo sapiens, CAL-120, 96 h) is 70.3 nM; at CDK9/CyclinT1, over 20000 nM; in assay [2] (Homo sapiens, MDA-MB-231, 24 h), 10.9 nM.

For `c1ccc2[nH]c(CNc3nn(C4CCOC4)c4nc(C5CC5)cnc34)nc2c1` (single isomer, unassigned) [Example 18, (-) or (+) -N-[(1H-benzimidazol-2-yl)methyl]-6-cyclopropyl-1-[oxolan-3-yl]-1H-pyrazolo[3,4-b]pyrazin-3-amine], the IC50 was 71.9 nM in assay [1], over 20000 nM on CDK9/CyclinT1 and over 10.7 nM in assay [2].

For the molecule `CN1CCCC(n2nc(NCc3nc4ccccc4[nH]3)c3ncc(C4CC4)nc32)CC1` (single isomer, unassigned) [Example 37, (+) or (−)-N-[(1H-benzimidazol-2-yl)methyl]-6-cyclopropyl-1-[(4R*)-1-methylazepan-4-yl]-1H-pyrazolo[3,4-b]pyrazin-3-amine], the IC50 was 4.14 nM in assay [1]; over 20000 nM at CDK9/CyclinT1; 11.3 nM in assay [2] (Homo sapiens, MDA-MB-231, 24 h).

Turning to `O=CO.c1ccc(-n2nc(NCc3nc4ccccc4[nH]3)c3ncc(C4CC4)nc32)cc1` [Example 13, formic acid—N-[(1H-benzimidazol-2-yl)methyl]-6-cyclopropyl-1-phenyl-1H-pyrazolo[3,4-b]pyrazin-3-amine (1/1)], the IC50 at CDK9/CyclinT1 is over 20000 nM; in assay [2] (Homo sapiens, MDA-MB-231, 24 h), 39 nM.

`Cn1nc(NCc2nc3ccccc3[nH]2)c2ncc(C3CC3)nc21` [Example 15, N-[(1H-benzimidazol-2-yl)methyl]-6-cyclopropyl-1-methyl-1H-pyrazolo[3,4-b]pyrazin-3-amine]: the IC50 is over 20000 nM on CDK9/CyclinT1 and 131 nM in assay [2] (Homo sapiens, MDA-MB-231, 24 h).

Consider `OCC1(Cn2nc(NCc3nc4ccccc4[nH]3)c3ncc(C4CC4)nc32)CCC1` [Example 74, {1-[(3-{[(1H-benzimidazol-2-yl)methyl]amino}-6-cyclopropyl-1H-pyrazolo[3,4-b]pyrazin-1-yl)methyl]cyclobutyl}methanol], for which the IC50 in assay [1] (Homo sapiens, CAL-120, 96 h) was 46.7 nM; on CDK9/CyclinT1 it was over 20000 nM.

In the case of `c1ccc2[nH]c(CNc3nn(CC4CCC4)c4nc(C5CC5)cnc34)nc2c1` [Example 75, N-[(1H-benzimidazol-2-yl)methyl]-1-(cyclobutylmethyl)-6-cyclopropyl-1H-pyrazolo[3,4-b]pyrazin-3-amine], the IC50 in assay [1] (Homo sapiens, CAL-120, 96 h) was 268 nM; on CDK9/CyclinT1, over 20000 nM.

On to `Cc1cnc2c(NCc3nc4ccccc4[nH]3)nn(C3CCN(C)CC3)c2n1` [Example 77, N-[(1H-benzimidazol-2-yl)methyl]-6-methyl-1-(1-methylpiperidin-4-yl)-1H-pyrazolo[3,4-b]pyrazin-3-amine], for which the IC50 in assay [1] (Homo sapiens, CAL-120, 96 h) was 1040 nM; on CDK9/CyclinT1 it was over 20000 nM.
